From patent US11613533B2, “Compounds useful for inhibiting RET kinase” (Eli Lilly and Company, priority 2020, dated 2023)
Changes are numbered by the printed parent chain.

Legend:
[1] = molecular target: T1, KIF5B-RET WT in HEK293 cells (Homo sapiens, UniProt P07949); assay: RET cell assay (In-Cell Western, phospho-RET Y1062), wildtype; format: cell-based; conditions: HEK293, doxycycline-induced KIF5B-RET WT, 1 hr compound treatment; read-out: EC50, inhibition of intracellular autophosphorylation of RET at tyrosine 1062, wildtype cells
T1 construct: expressed in transfected cells; host or cells: HEK293; the other entry of the earlier key: KIF5B (P33176, Kinesin-1 heavy chain)
T1 sequence (P07949 713-1063 limits assumed): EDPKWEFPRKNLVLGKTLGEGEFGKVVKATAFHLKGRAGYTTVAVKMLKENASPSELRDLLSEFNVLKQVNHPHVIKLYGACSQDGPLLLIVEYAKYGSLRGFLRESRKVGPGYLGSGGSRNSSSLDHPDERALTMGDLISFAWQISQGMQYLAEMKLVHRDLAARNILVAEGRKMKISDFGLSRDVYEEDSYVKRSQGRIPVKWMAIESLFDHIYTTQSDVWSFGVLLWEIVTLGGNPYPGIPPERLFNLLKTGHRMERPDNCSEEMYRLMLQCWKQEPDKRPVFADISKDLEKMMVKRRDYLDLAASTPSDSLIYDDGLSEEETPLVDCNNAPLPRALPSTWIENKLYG
Method: (§1) Compounds of formulas (I), (II), and (III) are screened for their ability to inhibit the intracellular autophosphorylation of RET at tyrosine 1062 as detected by In-Cell Western. HEK293 cells containing a doxycycline-inducible plasmid for inducible expression of KIF5B-RET WT and RET mutant forms V804M and G810S are seeded at 25,000 cells/well into black poly-D-lysine pre-coated 384-well plates (Corning, Catalog No. 356697). Expression of KIF5B-RET is induced with doxycycline at 1 μg/mL and cells are incubated at 37° C. overnight. Compounds are prepared in a threefold serial dilution in DMSO before further diluting 1:100 in media prior to the addition to the cells (0.1% final DMSO concentration). Compound treatment is performed for 1 hr at 37° C. followed by fixation of cells with 4% formaldehyde for 20 min at RT and cell permeabilisation with ice-cold MeOH for 10 min at RT. Cells are incubated with Intercept® blocking buffer (Li—COR, Catalogue No. 927-70010) for 1 hr at RT. Incubation with primary antibodies against human phospho-RET (Y1062) (R&D, Catalogue No. AF5009, 1/250 dilution) and human glyceraldehyde-3-phosphate dehydrogenase (clone 6C5, Merck, Catalog No. MAB374, 1/1000 dilution) are performed overnight at 4° C. Incubation with secondary antibodies IRDye® 800CW goat anti-rabbit IgG (Li—COR, Catalogue No. 926-32211, 1/1000 dilution) and IRDye® 680CW goat anti-mouse IgG (Li—COR, Catalogue No. 926-68070, 1/1000 dilution) are performed for 1 hr at RT. All antibody dilutions are done in Intercept® blocking buffer containing 0.05% Tween20. After washing cells with PBS-T (Cell Signaling technology, Catalogue No. 9809), the images are acquired on a Li—COR Odyssey LCx at 700 and 800 nm. Percent of DMSO control is calculated with 100% signal referring to control conditions containing no compound (0.4% DMSO only) and 0% signal represented by conditions containing control compound. The % of DMSO control values are fit to a 4 parameter logistic curve, and the determined EC50 value is defined as the estimated concentration of inhibitor at the inflexion point of the fitted curve.

[2] = molecular target: T2, KIF5B-RET mutant form V804M in HEK293 cells (Homo sapiens, UniProt P07949, V804M); assay: RET cell assay (In-Cell Western, phospho-RET Y1062), V804M; format: cell-based; conditions: HEK293, doxycycline-induced KIF5B-RET V804M, 1 hr compound treatment; read-out: EC50, inhibition of intracellular autophosphorylation of RET at tyrosine 1062, V804M cells
T2 construct: expressed in transfected cells; host or cells: HEK293; the other entry of the earlier key: KIF5B (P33176, Kinesin-1 heavy chain)
T2 sequence (P07949 713-1063 V804M limits assumed): T1 sequence (P07949 713-1063 limits assumed) with V92M
Method: as §1

[3] = molecular target: T3, KIF5B-RET mutant form G810S in HEK293 cells (Homo sapiens, UniProt P07949, G810S); assay: RET cell assay (In-Cell Western, phospho-RET Y1062), G810S; format: cell-based; conditions: HEK293, doxycycline-induced KIF5B-RET G810S, 1 hr compound treatment; read-out: EC50, inhibition of intracellular autophosphorylation of RET at tyrosine 1062, G810S cells
T3 construct: expressed in transfected cells; host or cells: HEK293; the other entry of the earlier key: KIF5B (P33176, Kinesin-1 heavy chain)
T3 sequence (P07949 713-1063 G810S limits assumed): T1 sequence (P07949 713-1063 limits assumed) with G98S
Method: as §1

Question: What does the source list for `CC(C(=O)Nc1cc(C(C)(C)C(F)(F)F)on1)c1ccc(-c2nn(C3(C)CC3)c(N)c2C(N)=O)nc1` (single isomer, unassigned; isomer 1) [Example 31, 5-Amino-1-(1-methylcyclopropyl)-3-[5-[(1-[[5-[1,1,1-trifluoro-2-methylpropan-2-yl)-1,2-oxazol-3-yl]carbamoyl]ethyl]pyridin-2-yl]pyrazole-4-carboxamide, Isomer 1]?
Answer: EC50 [1]: < 100 nM; EC50 [2]: < 100 nM; EC50 [3]: < 100 nM

Question: Which results are given for `CC(C(=O)Nc1cc(CC(C)(C)C)no1)c1ccc(-c2nn(C3(C)CC3)c(N)c2C(N)=O)nc1` (single isomer, unassigned; isomer 1) [Example 33, 5-Amino-3-[5-[1-[[3-(2,2-dimethylpropyl)-1,2-oxazol-5-yl]carbamoyl]ethyl]pyridin-2-yl]-1-(1-methylcyclopropyl)pyrazole-4-carboxamide, Isomer 1]?
Answer: EC50 [1]: < 100 nM; EC50 [2]: < 100 nM; EC50 [3]: < 100 nM

Question: Which melting point does the source give for `CC(C(=O)Nc1cc(CC(C)(C)C)no1)c1ccc(-c2nn(C(C)C)c(N)c2C(N)=O)cc1` (single isomer, unassigned; isomer 2) [Example 2, 5-Amino-3-[4-(1-[[3-(2,2-dimethylpropyl)-1,2-oxazol-5-yl]carbamoyl]ethyl)phenyl]-1-isopropylpyrazole-4-carboxamide, Isomer 2] here?
Answer: Its melting point is 128 °C.
